Test results taken from patent US20210038587A1, “METHODS AND COMPOSITIONS FOR TREATING NON-ERK MAPK PATHWAY INHIBITOR-RESISTANT CANCERS” (BIOMED VALLEY DISCOVERIES, INC., priority 2013, published 2021).

Assays:
Colo205 = experiment: Reverse Phase Protein Analysis (RPPA); format: cell-based, human; conditions: % change from DMSO (matched cell line)
Description: Control wells were treated with DMSO at 0.1% (v/v) for 6 hours prior to cell lysate generation. Samples were then analyzed using reverse-phase protein microarray technology (Theranostics Health).
Cell lines with common alterations in BRAF and RAS were assayed: BRAF^V600E mutant lines A375, Colo205, and HT29; KRAS^G12C-mutant cell line MIAPACa-2; KRAS^G13D-mutant cell line HCT116; and AN3Ca with atypical HRAS^F82L mutation.

MIAPaCa-2 = experiment: Reverse Phase Protein Analysis (RPPA); format: cell-based; conditions: MIAPaca2; % change from DMSO (matched cell line); as to Avg (4ebp1 T70): test concentration or dose not given here; as to Avg (Akt): test concentration or dose not given here; as to Avg (CREB S133): test concentration or dose not given here; as to Avg (Chk1): test concentration or dose not given here; as to Avg (Mcl1): test concentration or dose not given here; as to Avg (Raptor): test concentration or dose not given here

Q: What does the source list for Cn1nccc1Nc1nccc(-c2ccn([C@H](CO)c3ccc(Cl)c(F)c3)c(=O)c2)n1 [GDC-0994]?
A: Avg (4ebp1 T70) (Colo205): −36.69%; Avg (Akt S473) (Colo205): 4.45%; Avg (Akt) (Colo205): −11.83%; Avg (Bad S136) (Colo205): 4%; Avg (Bad S155) (Colo205): −9.11%; Avg (Bak) (Colo205): 6.58%; Avg (Bax) (Colo205): 8.2%; Avg (Bcl 2) (Colo205): 17.95%; Avg (Bcl2 S70) (Colo205): −9%; Avg (Bcl 2 T56) (Colo205): −4.6%; Avg (Bim) (Colo205): 20.59%; Avg (CREB S133) (Colo205): −11.85%; Avg (Caspase 3 CL D175) (Colo205): 23.06%; Avg (Caspase 7 Cl D198) (Colo205): 1.37%; Avg (Chk1) (Colo205): 5.06%; Avg (Chk1 S345) (Colo205): 6.08%; Avg (Cyclin D1) (Colo205): −28.02%; Avg (ERK 1 2) (Colo205): −3.33%; Avg (ERK 1 2 T202 Y204) (Colo205): 20.01%; Avg (MAK1 S360) (Colo205): 0.82%; Avg (Mcl1) (Colo205): 2.5%; Avg (Raptor S792) (Colo205): −9.04%; Avg (Raptor) (Colo205): −5.48%; Avg (Rictor) (Colo205): −5.04%; Avg (Stat1) (Colo205): 7.26%; Avg (Stat3) (Colo205): −0.86%; Avg (bad S112) (Colo205): −6.12%; Avg (c Fos) (Colo205): −21.33%; Avg (c Myc) (Colo205): −6.22%; Avg (mTOR S2448) (Colo205): −7.36%; Avg (mTOR S2481) (Colo205): 0.96%; Avg (mTOR) (Colo205): 3.39%; Avg (p70 S6 Kinase) (Colo205): 5.83%; Avg (p90 RSK S380) (Colo205): −57.5%; Avg(S6 Ribo Prot S235 236) (Colo205): −91.19%; Avg(S6 Ribo Prot S240 244) (Colo205): −91.59%; Avg(Tuberin TSC2 Y1571) (Colo205): 0.66%; Avg(p70 S6 Kinase S371 S394) (Colo205): −13.02%; Avg(p70 S6 Kinase T389 T412) (Colo205): −32.2%; Avg (4ebp1 T70) (MIAPaCa-2): −34.01%; Avg (Akt S473) (MIAPaCa-2): 2.24%; Avg (Akt) (MIAPaCa-2): 4.33%; Avg (Bad S136) (MIAPaCa-2): 2.25%; Avg (Bad S155) (MIAPaCa-2): 8.18%; Avg (Bak) (MIAPaCa-2): −8.11%; Avg (Bax) (MIAPaCa-2): 3.48%; Avg (Bcl 2) (MIAPaCa-2): −7.8%; Avg (Bcl2 S70) (MIAPaCa-2): −6.78%; Avg (Bcl 2 T56) (MIAPaCa-2): −2.12%; Avg (Bim) (MIAPaCa-2): 5.07%; Avg (CREB S133) (MIAPaCa-2): −21.37%; Avg (Caspase 3 CL D175) (MIAPaCa-2): 10.47%; Avg (Caspase 7 Cl D198) (MIAPaCa-2): −4.92%; Avg (Chk1) (MIAPaCa-2): 6.56%; Avg (Chk1 S345) (MIAPaCa-2): 32.96%; Avg (Cyclin D1) (MIAPaCa-2): −31.92%; Avg (ERK 1 2) (MIAPaCa-2): −6.88%; Avg (ERK 1 2 T202 Y204) (MIAPaCa-2): 199.59%; Avg (MAK1 S360) (MIAPaCa-2): −5.25%; Avg (Mcl1) (MIAPaCa-2): −1.79%; Avg (Raptor S792) (MIAPaCa-2): 2.18%; Avg (Raptor) (MIAPaCa-2): 22.43%; Avg (Rictor) (MIAPaCa-2): −11.25%; Avg (Stat1) (MIAPaCa-2): 7.4%; Avg (Stat3) (MIAPaCa-2): −9.44%; Avg (bad S112) (MIAPaCa-2): −10.08%; Avg (c Fos) (MIAPaCa-2): −16.12%; Avg (c Myc) (MIAPaCa-2): −7.84%; Avg (mTOR S2448) (MIAPaCa-2): 11.84%; Avg (mTOR S2481) (MIAPaCa-2): 3.65%; Avg (mTOR) (MIAPaCa-2): −9.8%; Avg (p70 S6 Kinase) (MIAPaCa-2): −3.25%; Avg (p90 RSK S380) (MIAPaCa-2): −39.09%; Avg(S6 Ribo Prot S235 236) (MIAPaCa-2): −67.9%; Avg(S6 Ribo Prot S240 244) (MIAPaCa-2): −75.59%; Avg(Tuberin TSC2 Y1571) (MIAPaCa-2): 5.71%; Avg(p70 S6 Kinase S371 S394) (MIAPaCa-2): −14.4%; Avg(p70 S6 Kinase T389 T412) (MIAPaCa-2): −40.99%
